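Each compound was tested at five concentrations against cells in 96-well plates for 48 hours. GI50 marks 50% less growth. TGI denotes the concentration required for complete inhibition of growth.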
Experiments:
Test in all cases: NCI tumour cell line growth inhibition, 48 h
HCT-116 colon = test system: HCT-116 colon
T-47D breast = test system: T-47D breast
SR leukemia = test system: SR leukemia
EKVX NSCLC = test system: EKVX NSCLC
NCI-H226 lung = test system: NCI-H226 lung
SW-620 colon = test system: SW-620 colon
DU-145 prostate = test system: DU-145 prostate
MCF7 breast = test system: MCF7 breast
SNB-75 CNS = test system: SNB-75 CNS
HOP-62 NSCLC = test system: HOP-62 NSCLC
A549 NSCLC = test system: A549 NSCLC
K-562 leukemia = test system: K-562 leukemia
CCRF-CEM leukemia = test system: CCRF-CEM leukemia
M14 melanoma = test system: M14 melanoma
LOX IMVI melanoma = test system: LOX IMVI melanoma
SN12C renal = test system: SN12C renal
NCI-H460 lung = test system: NCI-H460 lung
PC-3 prostate = test system: PC-3 prostate
786-0 renal = test system: 786-0 renal
SF-268 CNS = test system: SF-268 CNS
HCC-2998 colon = test system: HCC-2998 colon
SK-MEL-2 melanoma = test system: SK-MEL-2 melanoma
HL-60(TB) leukemia = test system: HL-60(TB) leukemia
RPMI-8226 leukemia = test system: RPMI-8226 leukemia
OVCAR-3 ovarian = test system: OVCAR-3 ovarian
MDA-MB-435 = test system: MDA-MB-435
A498 renal = test system: A498 renal
SK-OV-3 ovarian = test system: SK-OV-3 ovarian
KM12 colon = test system: KM12 colon
BT-549 breast = test system: BT-549 breast
UACC-62 melanoma = test system: UACC-62 melanoma
RXF 393 renal = test system: RXF 393 renal
MALME-3M melanoma = test system: MALME-3M melanoma
UACC-257 melanoma = test system: UACC-257 melanoma
NCI-H23 lung = test system: NCI-H23 lung
SNB-19 CNS = test system: SNB-19 CNS
SK-MEL-5 melanoma = test system: SK-MEL-5 melanoma
NCI/ADR-RES ovarian = test system: NCI/ADR-RES ovarian
NCI-H522 lung = test system: NCI-H522 lung
UO-31 renal = test system: UO-31 renal
MDA-MB-231 breast = test system: MDA-MB-231 breast
SK-MEL-28 melanoma = test system: SK-MEL-28 melanoma
SF-295 CNS = test system: SF-295 CNS
OVCAR-4 ovarian = test system: OVCAR-4 ovarian
HS 578T breast = test system: HS 578T breast
U251 CNS = test system: U251 CNS
TK-10 renal = test system: TK-10 renal
CAKI-1 renal = test system: CAKI-1 renal
IGROV1 ovarian = test system: IGROV1 ovarian
OVCAR-8 ovarian = test system: OVCAR-8 ovarian
HOP-92 NSCLC = test system: HOP-92 NSCLC
COLO 205 colon = test system: COLO 205 colon
MOLT-4 leukemia = test system: MOLT-4 leukemia
HT29 colon = test system: HT29 colon
OVCAR-5 ovarian = test system: OVCAR-5 ovarian
ACHN renal = test system: ACHN renal
HCT-15 colon = test system: HCT-15 colon
SF-539 CNS = test system: SF-539 CNS

CCN(CC)Cc1cc(Nc2c3ccc(Cl)cc3nc3ccc(OC)cc23)ccc1O
GI50 (HCT-116 colon): 2.34 µM | TGI (HCT-116 colon): 6.32 µM | GI50 (T-47D breast): 2.41 µM | TGI (T-47D breast): 7.25 µM | GI50 (SR leukemia): 3.32 µM | TGI (SR leukemia): 8.99 µM | GI50 (EKVX NSCLC): 12 µM | TGI (EKVX NSCLC): 34.7 µM | GI50 (NCI-H226 lung): 7.28 µM | TGI (NCI-H226 lung): 21.4 µM | GI50 (SW-620 colon): 3.25 µM | TGI (SW-620 colon): 11.1 µM | GI50 (DU-145 prostate): 5.01 µM | TGI (DU-145 prostate): 18.3 µM | GI50 (MCF7 breast): 1.6 µM | TGI (MCF7 breast): 4.04 µM | GI50 (SNB-75 CNS): 5.07 µM | TGI (SNB-75 CNS): 18.9 µM | GI50 (HOP-62 NSCLC): 2.89 µM | TGI (HOP-62 NSCLC): 10.9 µM | GI50 (A549 NSCLC): 5.59 µM | TGI (A549 NSCLC): 21.2 µM | GI50 (K-562 leukemia): 2.65 µM | TGI (K-562 leukemia): 6.39 µM | GI50 (CCRF-CEM leukemia): 3.86 µM | TGI (CCRF-CEM leukemia): 55.6 µM | GI50 (M14 melanoma): 1.88 µM | TGI (M14 melanoma): 3.43 µM | GI50 (LOX IMVI melanoma): 2 µM | TGI (LOX IMVI melanoma): 3.82 µM | GI50 (SN12C renal): 5.61 µM | TGI (SN12C renal): 18.3 µM | GI50 (NCI-H460 lung): 4.03 µM | TGI (NCI-H460 lung): 14.4 µM | GI50 (PC-3 prostate): 5.76 µM | TGI (PC-3 prostate): 22 µM | GI50 (786-0 renal): 4.21 µM | TGI (786-0 renal): 15.2 µM | GI50 (SF-268 CNS): 4.33 µM | TGI (SF-268 CNS): 18.5 µM | GI50 (HCC-2998 colon): 2.16 µM | TGI (HCC-2998 colon): 3.78 µM | GI50 (SK-MEL-2 melanoma): 2.36 µM | TGI (SK-MEL-2 melanoma): 4.6 µM | GI50 (HL-60(TB) leukemia): 5.32 µM | TGI (HL-60(TB) leukemia): 25.5 µM | GI50 (RPMI-8226 leukemia): 2.8 µM | TGI (RPMI-8226 leukemia): 6.63 µM | GI50 (OVCAR-3 ovarian): 7.59 µM | TGI (OVCAR-3 ovarian): 22.7 µM | GI50 (MDA-MB-435): 2.29 µM | TGI (MDA-MB-435): 6 µM | GI50 (A498 renal): 13.9 µM | TGI (A498 renal): 27.5 µM | GI50 (SK-OV-3 ovarian): 11.1 µM | TGI (SK-OV-3 ovarian): 23.4 µM | GI50 (KM12 colon): 3.17 µM | TGI (KM12 colon): 14.5 µM | GI50 (BT-549 breast): 17.2 µM | TGI (BT-549 breast): 31.4 µM | GI50 (UACC-62 melanoma): 2.11 µM | TGI (UACC-62 melanoma): 4.31 µM | GI50 (RXF 393 renal): 1.73 µM | TGI (RXF 393 renal): 4.36 µM | GI50 (MALME-3M melanoma): 2.13 µM | TGI (MALME-3M melanoma): 4.21 µM | GI50 (UACC-257 melanoma): 2.17 µM | TGI (UACC-257 melanoma): 3.89 µM | GI50 (NCI-H23 lung): 6.86 µM | TGI (NCI-H23 lung): 23.3 µM | GI50 (SNB-19 CNS): 6.4 µM | TGI (SNB-19 CNS): 19.3 µM | GI50 (SK-MEL-5 melanoma): 2.9 µM | TGI (SK-MEL-5 melanoma): 10.3 µM | GI50 (NCI/ADR-RES ovarian): 4.7 µM | TGI (NCI/ADR-RES ovarian): 17.8 µM | GI50 (NCI-H522 lung): 4.62 µM | TGI (NCI-H522 lung): 16.5 µM | GI50 (UO-31 renal): 4.16 µM | TGI (UO-31 renal): 16.1 µM | GI50 (MDA-MB-231 breast): 4.28 µM | TGI (MDA-MB-231 breast): 15.1 µM | GI50 (SK-MEL-28 melanoma): 1.77 µM | TGI (SK-MEL-28 melanoma): 3.26 µM | GI50 (SF-295 CNS): 3.5 µM | TGI (SF-295 CNS): 17.1 µM | GI50 (OVCAR-4 ovarian): 3.66 µM | TGI (OVCAR-4 ovarian): 13.1 µM | GI50 (HS 578T breast): 12.2 µM | TGI (HS 578T breast): 33.1 µM | GI50 (U251 CNS): 3.04 µM | TGI (U251 CNS): 13.2 µM | GI50 (TK-10 renal): 7.09 µM | TGI (TK-10 renal): 20 µM | GI50 (CAKI-1 renal): 2.89 µM | TGI (CAKI-1 renal): 11.7 µM | GI50 (IGROV1 ovarian): 5.11 µM | TGI (IGROV1 ovarian): 21.1 µM | GI50 (OVCAR-8 ovarian): 3.68 µM | TGI (OVCAR-8 ovarian): 12.6 µM | GI50 (HOP-92 NSCLC): 16.5 µM | TGI (HOP-92 NSCLC): 31 µM | GI50 (COLO 205 colon): 1.79 µM | TGI (COLO 205 colon): 3.34 µM | GI50 (MOLT-4 leukemia): 4.14 µM | TGI (MOLT-4 leukemia): 12.2 µM | GI50 (HT29 colon): 2.26 µM | TGI (HT29 colon): 5.03 µM

CC(=O)Oc1c(-c2ccccc2)oc2ccccc12
TGI (OVCAR-5 ovarian): 3.66 µM | TGI (HCT-116 colon): 4.12 µM | TGI (T-47D breast): 5.9 µM | TGI (SR leukemia): 1.59 µM | TGI (EKVX NSCLC): 3.99 µM | TGI (NCI-H226 lung): 5.2 µM | TGI (SW-620 colon): 11.8 µM | TGI (DU-145 prostate): 13.9 µM | TGI (MCF7 breast): 4.3 µM | TGI (SNB-75 CNS): 6.35 µM | TGI (HOP-62 NSCLC): 6 µM | TGI (A549 NSCLC): 3.33 µM | TGI (K-562 leukemia): 4.13 µM | TGI (CCRF-CEM leukemia): 3.93 µM | TGI (M14 melanoma): 5.17 µM | TGI (LOX IMVI melanoma): 1.41 µM | TGI (SN12C renal): 4.68 µM | TGI (NCI-H460 lung): 2.44 µM | TGI (PC-3 prostate): 4.55 µM | TGI (786-0 renal): 14.2 µM | TGI (SF-268 CNS): 6.3 µM | TGI (HCC-2998 colon): 2.8 µM | TGI (SK-MEL-2 melanoma): 4.35 µM | TGI (HL-60(TB) leukemia): 2.69 µM | TGI (RPMI-8226 leukemia): 2.67 µM | TGI (OVCAR-3 ovarian): 6.02 µM | TGI (MDA-MB-435): 6.95 µM | TGI (A498 renal): 9.72 µM | TGI (KM12 colon): 2.35 µM | TGI (BT-549 breast): 7.05 µM | TGI (UACC-62 melanoma): 8.49 µM | TGI (RXF 393 renal): 3.59 µM | TGI (MALME-3M melanoma): 5.54 µM | TGI (UACC-257 melanoma): 6.04 µM | TGI (NCI-H23 lung): 4.15 µM | TGI (SNB-19 CNS): 11.6 µM | TGI (ACHN renal): 3.28 µM | TGI (SK-MEL-5 melanoma): 2.8 µM | TGI (NCI/ADR-RES ovarian): 9.29 µM | TGI (NCI-H522 lung): 5 µM | TGI (UO-31 renal): 3.96 µM | TGI (MDA-MB-231 breast): 2.86 µM | TGI (SK-MEL-28 melanoma): 6.56 µM | TGI (SF-295 CNS): 2.58 µM | TGI (OVCAR-4 ovarian): 9.85 µM | TGI (HS 578T breast): 6.38 µM | TGI (U251 CNS): 2.76 µM | TGI (TK-10 renal): 14 µM | TGI (CAKI-1 renal): 2.62 µM | TGI (HCT-15 colon): 5.97 µM | TGI (IGROV1 ovarian): 6.56 µM | TGI (OVCAR-8 ovarian): 12.5 µM | TGI (HOP-92 NSCLC): 5.4 µM | TGI (COLO 205 colon): 3.77 µM | TGI (MOLT-4 leukemia): 4.53 µM | TGI (SF-539 CNS): 2.86 µM | TGI (HT29 colon): 5.75 µM

— PubChem BioAssay (NCI)
